# What was measured:
# IAV A/PR/8/34 [1] = test system: IAV A/PR/8/34; design: species or system C57BL/6 mice; conditions: mouse, in vivo
# IAV A/PR/8/34 [2] = test system: IAV A/PR/8/34; design: species or system C57BL/6 mice; conditions: mouse, in vivo; remark: listed apart in the source
# IAV A/PR/8/34 [3] = type: cell-based, IAV A/PR/8/34 (H1N1)
# [4] = test system: A549 cells infected with IAV A/PR/8/34; type: cell-based, human
# [5] = mouse, in vivo
molecule,measurement,setting,value
CC(C)c1ccc(Cn2ccc3c4c(N)nc(NC5CC5)nc4ccc32)cc1 [SCH79797],"protection from IAV induced death, different concentrations",IAV A/PR/8/34 [1],protected mice from IAV induced death in a dose-dependent manner
same,protection from IAV-induced death at different pfu/mice,IAV A/PR/8/34 [1],protected mice from IAV-induced death
same,infectious virus load in lungs,IAV A/PR/8/34 [2],significantly decreased infectious virus load
H-Thr-Phe-Leu-Leu-Arg-NH2 [TFLLR-NH2],virus production in IAV-infected A549 cells,IAV A/PR/8/34 [3],produced more viruses
same,IL-6 release,[4],significantly increased
same,IL-8 release,[4],significantly increased
same,RANTES release,[4],significantly increased
same,IAV-induced death in mice,IAV A/PR/8/34 [1],increased IAV-induced death
same,infectious virus loads in lungs,IAV A/PR/8/34 [2],significantly increased infectious virus loads
same,"side effect in uninfected mice (survival, weight)",[5],not sensitive

# From patent US8802623B2 (priority 2009, dated 2014)
